Experimental data published in publication PMC8815882, “Screening the pandemic response box identified benzimidazole carbamates, Olorofim and ravuconazole as promising drug candidates for the treatment of eumycetoma” (PLoS Neglected Tropical Diseases, 2022).
Like-named read-outs stand apart in the source and are kept apart here.

System: M. mycetomatis genome strain MM55
Assay: CLSI M38-A2 based in vitro susceptibility screening (XTT or resazurin), growth at fixed concentration
Assay type: cell-based, Madurella mycetomatis
Details: Madurella mycetomatis; for Percent fungal survival at 100 µM: read-out: Percentage survival at 100um, 100 uM A (second replicate column)
[1] = mean, read-out: Percentage survival at 25um, 25 uM mean
[2] = replicate A, read-out: Percentage survival at 25um, 25 um A
[3] = replicate B, read-out: Percentage survival at 25um, 25 uM B
[4] = replicate C, read-out: Percentage survival at 25um, 25 uM C
[5] = mean, read-out: Percentage survival at 100um, 100 uM mean
[6] = replicate (first column), read-out: Percentage survival at 100um, 100 uM A
[7] = replicate (second column), read-out: Percentage survival at 100um, 100 uM A
[8] = replicate (third column), read-out: Percentage survival at 100um, 100 uM A
[9] = mean of three, M. mycetomatis MM55, read-out: Percentage survival at 25um, 25 uM mean
[10] = replicate A, M. mycetomatis MM55, read-out: Percentage survival at 25um, 25 um A
[11] = replicate B, M. mycetomatis MM55, read-out: Percentage survival at 25um, 25 uM B
[12] = replicate C, M. mycetomatis MM55, read-out: Percentage survival at 25um, 25 uM C
[13] = mean of three, M. mycetomatis MM55, read-out: Percentage survival at 100um, 100 uM mean
[14] = replicate 1, M. mycetomatis MM55, read-out: Percentage survival at 100um, 100 uM A (first replicate column)
[15] = replicate 2, M. mycetomatis MM55
[16] = replicate 3, M. mycetomatis MM55, read-out: Percentage survival at 100um, 100 uM A (third replicate column)
[17] = mean of replicates, read-out: Percentage survival at 25um, 25 uM mean
[18] = mean of replicates, read-out: Percentage survival at 100um, 100 uM mean
[19] = replicate 1, read-out: Percentage survival at 100um, 100 uM A
[20] = replicate 2, read-out: Percentage survival at 100um, 100 uM A
[21] = replicate 3, read-out: Percentage survival at 100um, 100 uM A
[22] = mean of three replicates, read-out: Percentage survival at 25um, 25 uM mean
[23] = mean of three replicates, read-out: Percentage survival at 100um, 100 uM mean
[24] = replicate 1, read-out: Percentage survival at 100um, 100 uM A (first replicate column)
[25] = replicate 3, read-out: Percentage survival at 100um, 100 uM A (third replicate column)

Row | Structure (SMILES) | activity at 25 µM [2] | activity at 25 µM [3] | activity at 25 µM [4] | activity at 25 µM [17] | activity at 100 µM [18] | activity at 100 µM [19] | activity at 100 µM [20] | activity at 100 µM [21] | further results
1 | c1ccc(-c2nnc3c4ccccc4c(N4CCNCC4)nn23)cc1 [MMV1581551] | 93.2% | 85.9% | 74.8% |  |  |  |  |  | activity at 25 µM [1]: 84.6%; activity at 100 µM [5]: 37%; activity at 100 µM [6]: 10.9%; activity at 100 µM [7]: 52.3%; activity at 100 µM [8]: 47.9%
2 | O=C(Nc1ccccc1)N(Cc1cc(Br)ccc1O)c1ccc(F)cc1 [MMV1581552] |  |  |  |  |  |  |  |  | activity at 25 µM [9]: 51.3%; activity at 25 µM [10]: 32.5%; activity at 25 µM [11]: 58.2%; activity at 25 µM [12]: 63.3%; activity at 100 µM [13]: 11.5%; activity at 100 µM [14]: 1.56%; Percent fungal survival at 100 µM [15]: 8.53%; activity at 100 µM [16]: 24.3%
3 | COc1ccc2c(c1)cc(CNC(=O)c1cc3ccccc3o1)n2CC(=O)O [MMV1581553] | 87.4% | 70.5% | 72.3% |  |  |  |  |  | activity at 25 µM [1]: 76.7%; activity at 100 µM [5]: 88.6%; activity at 100 µM [6]: 90%; activity at 100 µM [7]: 85%; activity at 100 µM [8]: 90.9%
4 | Nc1cc(N)c2nc(-c3ccccc3)c(Nc3ccc(F)cc3)nc2c1 [MMV1581554] |  |  |  |  |  |  |  |  | activity at 25 µM [9]: 92.5%; activity at 25 µM [10]: 97.1%; activity at 25 µM [11]: 91.3%; activity at 25 µM [12]: 89.3%; activity at 100 µM [13]: 89.9%; activity at 100 µM [14]: 116%; Percent fungal survival at 100 µM [15]: 80.3%; activity at 100 µM [16]: 73.1%
5 | Nc1cccc(-c2nc(N)nc(NC3Cc4ccccc4C3)n2)c1 [MMV1581555] | 98.9% | 85.3% | 73.8% | 86% | 85.5% | 81.1% | 89% | 86.6% | 
6 | NC(=O)c1[nH]c2ccc(S(N)(=O)=O)cc2c1-c1ccccc1 [MMV1581556] | 70.3% | 68.8% | 78.1% |  |  |  |  |  | activity at 25 µM [22]: 72.4%; activity at 100 µM [23]: 70.1%; activity at 100 µM [24]: 77.5%; Percent fungal survival at 100 µM (replicate 2): 68%; activity at 100 µM [25]: 64.9%
7 | O=C(N[C@H](CCS)C(=O)N[C@H](Cc1ccccc1)C(=O)O)c1cc2ccccc2[nH]1 [MMV1581557] | 88.1% | 98.1% | 70% | 85.4% | 83.1% | 82.1% | 85.3% | 81.8% | 
8 | Cc1cccc(C)c1C(=O)Nc1nc(-c2ccccn2)cc2ccccc12 [MMV1581558] | 65% | 114% | 52.4% |  |  |  |  |  | activity at 25 µM [22]: 77.1%; activity at 100 µM [23]: 86%; activity at 100 µM [24]: 76.1%; Percent fungal survival at 100 µM (replicate 2): 64.3%; activity at 100 µM [25]: 118%
9 | CC(C)Cn1c(=O)n(C)c(=O)c2c(-c3cncn3C)n(Cc3cccc4ccccc34)nc21 [MMV1581559] | 82.8% | 69.9% | 22.7% |  |  |  |  |  | activity at 25 µM [22]: 58.5%; activity at 100 µM [23]: 3.57%; activity at 100 µM [24]: 1.05%; Percent fungal survival at 100 µM (replicate 2): 5.73%; activity at 100 µM [25]: 3.94%
10 | CC(=N)N1CC[C@H](SC2=C(C(=O)O)N3C(=O)[C@@H]([C@@H](C)O)[C@H]3C2)C1 [MMV1582382] | 77.3% | 85.2% | 72.8% | 78.4% | 83.2% | 76.4% | 82.9% | 90.3% | 
11 | CCCCCCCCC(CP(=O)(O)C(C)N)C(=O)O (stereo not shown) [MMV1582487] | 90.3% | 86.2% | 76.2% | 84.2% | 95.3% | 85.8% | 103% | 97.5% | 
